The nature of data set [1]: Absorption and fluorescence spectra and pH profiles in sodium phosphate buffer. The class given is physicochemical. The conditions noted are these: for pH-dependent change of absorbance / λabs / λfl: 0.1 M sodium phosphate buffer containing 1% DMSO; for pH-dependent change of absorbance: pH profile; for λabs / λfl: Table 1. As to the method: (§1) Fluorescence was measured with an excitation wavelength of 593 nm.
Fluorescence was measured with an excitation wavelength of 505 nm.
Fluorescence was measured with an excitation wavelength of 590 nm.
Absorption and fluorescence spectra as well as pH profiles of 2-Me SiR600 and the acetylated compound thereof (N-Ac-2-Me SiR600) synthesized in Example 2 were measured. […] Therefore, 2-Me SiR600 in which the amino group at the 3-position is acylated can be functioned as a fluorescent probe for detecting enzymatic activity on the basis of absorption wavelength change with a high S/N ratio, without using the intramolecular photoinduced electron transfer.
In a similar manner, absorption and fluorescence spectra as well as pH profiles of 2-COOH SiR600 and the acetylated compound thereof were measured. […] Therefore, it can be used as a fluorescent probe as shown in the following scheme.
Absorption spectrum of Z-DEVD-SiR600 was measured in a 0.1 M sodium phosphate buffer of pH 3 to 10 containing 1% DMSO. The measurement results are shown in FIG. 5, and the photochemical characteristics are shown in Table 3 mentioned below together with the results for SiR600.

The subject of a further data set is leucine aminopeptidase. Description: Reaction of fluorescent probe with leucine aminopeptidase (absorption/fluorescence before and after). The conditions noted are these: for absorption maximum wavelength: 0.1 M sodium phosphate buffer pH 7.4, 37° C., before/after reaction with leucine aminopeptidase. The format is biochemical. As for the experimental part:
as §1
Function of Leu-SiR600 as a fluorescent probe was evaluated by reacting it with leucine aminopeptidase. Leucine aminopeptidase (0.096 unit) was added to Leu-SiR600 (6 μM), and the mixture was reacted for 2.5 hours. The reaction performed at 37° C. in a 0.1 M sodium phosphate buffer (pH 7.4, 0.75 ml) containing 0.8% DMSO. The absorption spectra and fluorescence spectra observed before and after the reaction are shown in FIG. 7, (b) and (c), respectively.

A further data set has as its system caspase-3. Kind of data set: Reaction of fluorescent probe with caspase-3 (absorption/fluorescence before and after). The class given is biochemical. The conditions noted are these: for absorption maximum wavelength: 20 mM HEPES buffer pH 7.4, 37° C., before/after reaction with caspase-3. As for the experimental part:
as §1
Function of Z-DEVD-SiR600 as a fluorescent probe was evaluated by reacting it with caspase-3. Caspase-3 (0.5 μg) was added to Z-DEVD-SiR600 (2 μM), and the mixture was reacted for 10 hours. The reaction was performed at 37° C. in a 20 mM HEPES buffer (pH 7.4, 0.75 ml) containing 100 μM dithiothreitol (DTT), 10% glycerol, 0.1% CHAPS, 100 mM NaCl, and 0.1% DMSO. The absorption spectra and fluorescence spectra observed before and after the reaction (excitation wavelengths are shown in FIG. 6, (b) and (c), respectively, and the kinetics parameters of the reaction are shown in FIG. 6, (d)).

On to `CC(=O)Nc1ccc2c(c1)[Si](C)(C)c1cc(N)ccc1C21OC(=O)c2ccccc21` (stereo not drawn) [N-Acetyl-2-COOH SiR600], for which the “absorption for the visible region” value in data set [1] (physiological pH range) was “not to show absorption for the visible region in the physiological pH range”.
In the data set on leucine aminopeptidase, `Cc1ccccc1C1=C2C=CC(=N)C=C2[Si](C)(C)c2cc(N)ccc21` [2-Me SiR600] returned an absorption maximum wavelength of 593 nm. The compound further displayed an absorption maximum wavelength with caspase-3 of 593 nm. Further, in data set [1], the “pH-dependent change of absorbance” value is “did not substantially show pH-dependent change of absorbance”, the λabs was 593 nm and the λfl was 613 nm. This compound yielded a maximum absorption wavelength in data set [1] (Example 4) of 593 nm. Moreover, in data set [1] (Table 3, pH 7.4), the ΦFL was found to be 0.38, the ε amounted to 91000 M⁻¹ cm⁻¹, the λem is 613 nm and the λex is reported as 593 nm.
Regarding `C[Si]1(C)c2cc(N)ccc2C2(OC(=O)c3ccccc32)c2ccc(N)cc21` [2-COOH SiR600], the “pH-dependent change of absorbance” value in data set [1] is on record as “did not substantially show absorbance change at pH higher than the physiological pH region”. In data set [1] (Table 2, pH 7.4), this compound came in with a ΦFL of 0.26, a ε of 4000 M⁻¹ cm⁻¹, a λem of 610 nm and a λex of 590 nm.
In the case of `CC(=O)Nc1ccc2c(c1)[Si](C)(C)C1=CC(=N)C=CC1=C2c1ccccc1C` [N-Ac-2-Me SiR600, N-Acetyl-2-Me SiR600], in data set [1], the “pH-dependent change of absorbance” value is recorded as “decreased with decrease of pH”, the λabs is reported as 505 nm and the λfl is 600 nm. In addition, the “shift of maximum absorption wavelength compared with 2-Me SiR600” value in data set [1] (acetylation of the amino group at the 3-position) is “significantly shifted to the shorter wavelength side”.
For the compound `Cc1ccccc1C1=C2C=CC(=N)C=C2[Si](C)(C)c2cc(NC(=O)[C@H](N)CC(C)C)ccc21` [Leu-SiR600], the absorption maximum wavelength result in the data set with leucine aminopeptidase is “around 500 nm”. Moreover, in the data set on leucine aminopeptidase (probe 6 μM, leucine aminopeptidase 0.096 unit, 2.5 hours, 37° C., excitation light 593 nm), the “fluorescence before and after the reaction with leucine aminopeptidase” value is “scarcely observed before the reaction, but extremely strong fluorescence is observed after the reaction”.
Z-DEVD-SiR600: in the data set on caspase-3, the absorption maximum wavelength result is given as “around 500 nm”. Also, the “fluorescence before and after the reaction with caspase-3” value with caspase-3 (probe 2 μM, caspase-3 0.5 μg, 10 hours, 37° C., excitation light 593 nm) was “scarcely observed before the reaction, but extremely strong fluorescence is observed after the reaction”. Further, the “pH-dependent change of absorbance” value in data set [1] is “showed pH-dependent absorbance change”. Moreover, in data set [1] (Table 3, pH 3.0), the ΦFL was 0.19, the ε is 85000 M⁻¹ cm⁻¹, the λem is recorded as 600 nm and the λex was found to be 500 nm. The “absorption of light around 593 nm” value in data set [1] (around the maximum absorption wavelength of SiR600) was “did not absorb light around the maximum absorption wavelength (593 nm) of SiR600”.

The values above are taken from patent US9329184B2, “Fluorescent probe” (THE UNIVERSITY OF TOKYO, priority 2011, dated 2016).
